For one test, the target named is Pim2 kinase (Homo sapiens, UniProt Q9P1W9). The test can be described thus: Pim2 ATP depletion assay.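 Also: Luciferase-based luminescent readout of ATP remaining after PIM2 phosphorylates a BAD peptide, final 5 nM enzyme, 4 µM ATP, 10 µM peptide, 2.5% DMSO, run to roughly half ATP consumption.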 The class given is biochemical. As to conditions: read-out: IC50 (μM) PIM2.
Test [1] concerns the target T1, human full length PKCE enzyme (Homo sapiens, UniProt Q02156).
T1 construct: human full length PKCE enzyme purchased from InVitrogen; purchased InVitrogen
T1 sequence (Q02156 1-737): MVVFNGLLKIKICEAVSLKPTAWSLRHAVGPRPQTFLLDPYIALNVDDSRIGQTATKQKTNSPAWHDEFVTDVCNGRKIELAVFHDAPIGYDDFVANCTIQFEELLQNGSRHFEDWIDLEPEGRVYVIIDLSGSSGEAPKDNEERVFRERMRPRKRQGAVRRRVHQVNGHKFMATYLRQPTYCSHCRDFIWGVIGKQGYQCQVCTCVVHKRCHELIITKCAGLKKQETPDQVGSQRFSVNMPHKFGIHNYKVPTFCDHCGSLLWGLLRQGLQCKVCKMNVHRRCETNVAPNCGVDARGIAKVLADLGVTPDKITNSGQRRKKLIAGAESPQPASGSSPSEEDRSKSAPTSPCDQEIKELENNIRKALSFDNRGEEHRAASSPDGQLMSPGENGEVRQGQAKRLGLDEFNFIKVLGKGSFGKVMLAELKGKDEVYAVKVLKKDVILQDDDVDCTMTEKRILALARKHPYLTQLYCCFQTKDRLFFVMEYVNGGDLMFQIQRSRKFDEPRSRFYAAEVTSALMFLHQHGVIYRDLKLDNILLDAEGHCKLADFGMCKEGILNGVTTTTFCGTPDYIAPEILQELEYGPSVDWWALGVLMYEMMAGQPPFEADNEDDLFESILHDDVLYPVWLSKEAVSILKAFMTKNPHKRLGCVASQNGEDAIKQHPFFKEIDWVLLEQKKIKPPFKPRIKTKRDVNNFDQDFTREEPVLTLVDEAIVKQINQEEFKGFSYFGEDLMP
The test can be described thus: In vitro PKCE assay. The class given is biochemical. As to conditions: 10 nM enzyme, 40 uM peptide substrate, 20 uM ATP, KinaseGlo Plus readout; read-out: PKCε IC50.

The next test deals with Pim3 kinase (Homo sapiens, UniProt Q86V86). Briefly: Pim3 ATP depletion assay. It counts as biochemical. Particulars: read-out: IC50 (μM) PIM3.
Another test concerns PC3 cells. The test can be described thus: Cell proliferation assay (CellTiter-Glo), PC3. The class given is cell-based. Particulars: Homo sapiens, PC-3. Here is the method: HEL 92.1.7 cells (ATTC No. TIB-180, an erythroleukemia line derived from malignant peripheral blood), MV4-11 cells (ATCC No. CRL-9591, a human acute monocytic leukemia line) and PC3 cells (ATCC No. CRL-1435, a human prostatic adenocarcinoma line) were cultured in RPMI1640 supplemented with 10% FBS, sodium pyruvate and antibiotics. Cells were plated in the same medium at a density of 1000 cells per well into 96 well tissue culture plates, with outside wells vacant, on the day of assay.
Test compounds supplied in DMSO were diluted into DMSO at 500 times the desired final concentrations before dilution into culture media to 2 times final concentrations. Equal volumes of 2× compounds were added to the cells in 96 well plates and incubated at 37° C. for 3 days.
After 3 days plates were equilibrated to room temperature and equal volume of CellTiter-Glow Reagent (Promega) was added to the culture wells. The plates were agitated briefly and luminescent signal was measured with luminometer. The percent inhibition of the signal seen in cells treated with DMSO alone vs. cells treated with control compound was calculated and used to determine EC50 values (i.e., the concentration of a test compound that is required to obtain 50% of the maximum effect in the cells) for tested compounds, as shown in Example 763.

For the next test, the target named is Pim1 kinase (Homo sapiens, UniProt P11309). The test can be described thus: Pim1 ATP depletion assay.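 Also: Luciferase-luciferin luminescence readout of residual ATP after PIM1 transfers phosphate to a peptide substrate, 40 µM ATP added, reaction run to roughly half ATP consumption.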 The class given is biochemical. Particulars: Pim1 ATP depletion assay; read-out: IC50 (μM) PIM1.
Pim1 kinase, sequence (P11309 whole entry): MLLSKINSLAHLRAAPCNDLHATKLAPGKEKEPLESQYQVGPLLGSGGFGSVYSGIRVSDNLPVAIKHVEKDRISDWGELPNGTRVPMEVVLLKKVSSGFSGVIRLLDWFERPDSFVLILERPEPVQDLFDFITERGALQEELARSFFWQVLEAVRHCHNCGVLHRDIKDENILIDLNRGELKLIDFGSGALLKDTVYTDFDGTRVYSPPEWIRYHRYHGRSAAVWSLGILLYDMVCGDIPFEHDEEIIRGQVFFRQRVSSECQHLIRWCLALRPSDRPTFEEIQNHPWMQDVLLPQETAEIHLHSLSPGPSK
For a further test, the target named is KDR kinase (Homo sapiens, UniProt P35968). Briefly: KDR AlphaScreen assay. As to conditions: KDR IC50 (μM).
KDR kinase, sequence (P35968 20-1356): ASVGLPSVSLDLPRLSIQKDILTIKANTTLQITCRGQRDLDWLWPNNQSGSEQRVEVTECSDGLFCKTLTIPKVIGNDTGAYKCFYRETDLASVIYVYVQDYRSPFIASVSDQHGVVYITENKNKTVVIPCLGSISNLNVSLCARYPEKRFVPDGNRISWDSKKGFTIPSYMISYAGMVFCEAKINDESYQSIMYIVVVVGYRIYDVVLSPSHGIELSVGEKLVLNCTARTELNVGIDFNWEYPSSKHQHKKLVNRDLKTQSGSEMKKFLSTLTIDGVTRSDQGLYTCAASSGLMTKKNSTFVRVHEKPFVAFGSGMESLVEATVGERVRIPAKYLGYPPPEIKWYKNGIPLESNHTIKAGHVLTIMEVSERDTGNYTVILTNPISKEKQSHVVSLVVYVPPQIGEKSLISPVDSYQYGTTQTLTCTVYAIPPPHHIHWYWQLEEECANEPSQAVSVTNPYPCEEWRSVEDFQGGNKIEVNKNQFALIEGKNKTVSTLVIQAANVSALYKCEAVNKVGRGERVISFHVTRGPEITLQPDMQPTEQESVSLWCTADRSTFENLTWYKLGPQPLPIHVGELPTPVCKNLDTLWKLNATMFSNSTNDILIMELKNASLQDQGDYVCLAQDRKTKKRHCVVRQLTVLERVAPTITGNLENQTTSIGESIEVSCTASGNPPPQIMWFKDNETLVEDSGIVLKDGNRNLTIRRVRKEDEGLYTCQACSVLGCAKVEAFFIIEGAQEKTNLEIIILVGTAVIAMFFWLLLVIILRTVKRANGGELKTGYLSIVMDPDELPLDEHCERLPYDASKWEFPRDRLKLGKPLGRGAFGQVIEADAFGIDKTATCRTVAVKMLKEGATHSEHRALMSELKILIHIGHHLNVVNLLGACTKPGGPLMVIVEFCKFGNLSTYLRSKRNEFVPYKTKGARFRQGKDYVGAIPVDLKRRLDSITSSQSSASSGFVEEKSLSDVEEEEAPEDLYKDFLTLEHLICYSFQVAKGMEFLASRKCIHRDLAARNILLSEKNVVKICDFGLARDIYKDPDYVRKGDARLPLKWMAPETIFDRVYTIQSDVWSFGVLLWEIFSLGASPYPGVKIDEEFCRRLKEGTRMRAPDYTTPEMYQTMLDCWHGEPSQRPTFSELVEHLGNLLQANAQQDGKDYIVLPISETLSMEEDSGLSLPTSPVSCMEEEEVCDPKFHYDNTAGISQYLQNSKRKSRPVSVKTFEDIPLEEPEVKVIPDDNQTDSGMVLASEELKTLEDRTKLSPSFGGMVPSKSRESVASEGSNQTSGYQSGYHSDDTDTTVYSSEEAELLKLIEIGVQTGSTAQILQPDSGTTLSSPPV

Molecules are shown by their SMILES. Where “and” joins values, the source holds several entries; their conditions need not be identical. Equal entries are not always repeated.

Pim2 kinase, sequence (Q9P1W9 whole entry): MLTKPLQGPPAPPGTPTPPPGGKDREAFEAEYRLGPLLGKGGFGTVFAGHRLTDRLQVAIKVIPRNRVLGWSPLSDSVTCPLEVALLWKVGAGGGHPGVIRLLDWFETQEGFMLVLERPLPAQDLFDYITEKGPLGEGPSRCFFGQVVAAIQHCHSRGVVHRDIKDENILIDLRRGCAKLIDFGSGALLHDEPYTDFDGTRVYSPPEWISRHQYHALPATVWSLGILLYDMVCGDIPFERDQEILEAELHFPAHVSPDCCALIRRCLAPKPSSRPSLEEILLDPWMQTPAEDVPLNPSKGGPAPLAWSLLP

As for `Nc1nc(N)c(C(=O)Nc2ccncc2N2CCCCC2)nc1Cl` [Example 120, 3,5-diamino-6-chloro-N-(3-piperidin-1-ylpyridin-4-yl)-pyrazine-2-carboxamide], the IC50 at Pim2 kinase is 1 to 10 µM; in test [1] it was 1000 to 10000 nM; on Pim3 kinase, below 1 µM; on Pim1 kinase it was below 1 µM. In the test with PC3 cells, this molecule yielded an EC50 of 1 to 5 µM.

In the case of `Nc1nccnc1C(=O)Nc1ccncc1N1CCCCC1` [Example 122, 3-amino-N-(3-piperidin-1-yl-pyridin-4-yl)pyrazine-2-carbox-amide], the IC50 on Pim2 kinase is 1 to 10 µM; in test [1] it was below 1000 nM; at Pim3 kinase, 1 to 10 µM; at Pim1 kinase, below 1 µM. In the test on PC3 cells, this molecule came in with an EC50 below 1 µM.

Turning to `CN(C)C1CCN(c2ccncc2NC(=O)c2nccnc2N)CC1` [Example 126, 3-amino-N-{4-[4-(dimethyl-amino)piperidin-1-yl]pyridin-3-yl}pyrazine-2-carboxamide], the IC50 on Pim2 kinase is 1 to 10 µM; against KDR kinase it was 1 to 10 µM; in test [1], below 1000 nM; on Pim3 kinase it was below 1 µM; on Pim1 kinase it was below 1 µM. For the same molecule, in the test on PC3 cells, the EC50 was in the range of 5 to 10 µM.

Regarding `Nc1nccnc1C(=O)Nc1cnccc1N1CCC(N)CC1` [Example 193, 3-amino-N-[4-(4-aminopiperidin-1-yl)pyridin-3-yl]pyrazine-2-carboxamide], the IC50 at Pim2 kinase is 1 to 10 µM; in test [1] it was below 1000 nM; on Pim3 kinase, below 1 µM; at Pim1 kinase, below 1 µM. The concentration for a half-maximal effect (EC50) in the test with PC3 cells is below 1 µM.

Take `Nc1nccnc1C(=O)Nc1ccccc1N1CCCC(N)C1` (centres unmarked) [Example 195, 3-amino-N-[2-(3-aminopiperidin-1-yl)phenyl]pyrazine-2-carboxamide]: the IC50 on Pim2 kinase is below 1 µM; at KDR kinase, above 25 µM; in test [1], below 1000 nM; at Pim3 kinase it was below 1 µM; at Pim1 kinase, below 1 µM. This molecule also yielded an EC50 in the test on PC3 cells above 10 µM.

Consider `Nc1nccnc1C(=O)Nc1ccccc1N1CCC[C@H](N)C1` [Example 201, 3-amino-N-{2-[(3S)-3-amino-piperidin-1-yl]phenyl}pyrazine-2-carboxamide], for which the IC50 at Pim2 kinase is below 1 µM; on KDR kinase, 10 to 25 µM; in test [1] it was below 1000 nM; at Pim3 kinase, below 1 µM; on Pim1 kinase, below 1 µM. For the same molecule, in the test with PC3 cells, the 50% effective concentration (EC50) is 5 to 10 µM.

Take `Nc1nccnc1C(=O)Nc1ccccc1N1CCNCC1` [Example 202, 3-amino-N-(2-piperazin-1-ylphenyl)pyrazine-2-carbox-amide]: the IC50 on Pim2 kinase is above 25 µM; at KDR kinase, above 25 µM; in test [1], below 1000 nM; on Pim3 kinase, 1 to 10 µM; on Pim1 kinase it was 1 to 10 µM. The molecule further returned an EC50 in the test with PC3 cells of 1 to 5 µM.

As for `Nc1nccnc1C(=O)Nc1ccccc1N1CCC(N)CC1` [Example 203, 3-amino-N-[2-(4-aminopiperidin-1-yl)phenyl]pyrazine-2-carboxamide], the IC50 on Pim2 kinase is 1 to 10 µM; on KDR kinase it was above 25 µM; in test [1], below 1000 nM; at Pim3 kinase it was below 1 µM; at Pim1 kinase it was below 1 µM. Moreover, the EC50 in the test with PC3 cells was below 1 µM.

`Nc1ncc(Br)nc1C(=O)Nc1ccccc1N1CCC(N)CC1` [Example 205, 3-amino-N-[2-(4-aminopiperidin-1-yl)phenyl]-6-bromopyrazine-2-carboxamide]: the IC50 on Pim2 kinase is below 1 µM; against KDR kinase, 1 to 10 µM; in test [1], below 1000 nM; on Pim3 kinase, below 1 µM; at Pim1 kinase it was below 1 µM. Besides, the EC50 in the test with PC3 cells was below 1 µM.

`Nc1nccnc1C(=O)Nc1cc(Cl)ccc1N1CCC(N)CC1` [Example 214, 3-amino-N-[2-(4-aminopiperidin-1-yl)-5-chlorophenyl]pyrazine-2-carboxamide]: the IC50 at Pim2 kinase is 1 to 10 µM; against KDR kinase it was 10 to 25 µM; in test [1], below 1000 nM; on Pim3 kinase, below 1 µM; on Pim1 kinase it was below 1 µM. This molecule also registered an EC50 with PC3 cells of 1 to 5 µM.

For the molecule `Cc1ccc(N2CCC(N)CC2)c(NC(=O)c2nccnc2N)c1` [Example 217, 3-amino-N-[2-(4-aminopiperidin-1-yl)-5-methylphenyl]pyrazine-2-carboxamide], the IC50 was above 25 µM at Pim2 kinase; > 25 µM and 10 to 25 µM against KDR kinase; 10000 to 25000 nM and < 1000 nM in test [1]; 1 to 10 µM at Pim3 kinase; below 1 µM at Pim1 kinase. Besides, in the test with PC3 cells, the EC50 was 5 to 10 µM.

As to `COc1ccc(N2CCC(N)CC2)c(NC(=O)c2nccnc2N)c1` [Example 222, 3-amino-N-[2-(4-aminopiperidin-1-yl)-5-methoxyphenyl]pyrazine-2-carboxamide], the IC50 was 10 to 25 µM on Pim2 kinase; above 25 µM on KDR kinase; below 1000 nM in test [1]; below 1 µM on Pim3 kinase; below 1 µM on Pim1 kinase. The EC50 with PC3 cells is above 10 µM.

With `Cc1ccc(NC(=O)c2nccnc2N)c(N2CCC(N)CC2)c1` [Example 228, 3-amino-N-[2-(4-aminopiperidin-1-yl)-4-methylphenyl]pyrazine-2-carboxamide], the IC50 at Pim2 kinase is 10 to 25 µM; against KDR kinase, 10 to 25 µM; in test [1] it was below 1000 nM; at Pim3 kinase, below 1 µM; on Pim1 kinase, below 1 µM. The same molecule showed an EC50 in the test with PC3 cells of 5 to 10 µM.

As to `Nc1ncc(-c2ccccc2)nc1C(=O)Nc1cnccc1N1CCNCC1` [Example 359, 3-amino-6-phenyl-pyrazine-2-carboxylic acid (4-piperazin-1-yl-pyridin-3-yl)-amide], the IC50 at Pim2 kinase was below 1 µM; against KDR kinase, below 1 µM; in test [1], below 1000 nM; at Pim3 kinase, below 1 µM; on Pim1 kinase, below 1 µM. The EC50 in the test on PC3 cells is below 1 µM.

For `Nc1ncc(-c2ccccc2F)nc1C(=O)Nc1cnccc1N1CCNCC1` [Example 363, 3-amino-6-(2-fluoro-phenyl)-pyrazine-2-carboxylic acid (4-piperazin-1-yl-pyridin-3-yl)-amide], the IC50 was below 1 µM against KDR kinase, below 1000 nM in test [1], below 1 µM at Pim3 kinase and below 1 µM at Pim1 kinase. This molecule returned an EC50 in the test with PC3 cells below 1 µM.

For `Nc1ncc(-c2ccccc2)nc1C(=O)Nc1cnccc1N1CCC(N)CC1` [Example 364, 3-amino-6-phenyl-pyrazine-2-carboxylic acid (4-amino-3,4,5,6-tetrahydro-2H-[1,4′]bi-pyridinyl-3′-yl)-amide], the IC50 at KDR kinase is < 1 µM and 1 to 10 µM; in test [1], below 1000 nM; at Pim3 kinase, below 1 µM; on Pim1 kinase it was below 1 µM. Besides, in the test with PC3 cells, the EC50 was below 1 µM.

Regarding `COc1ccc(-c2cnc(N)c(C(=O)Nc3cnccc3N3CCC(N)CC3)n2)cc1` [Example 367, 3-amino-6-(4-methoxy-phenyl)-pyrazine-2-carboxylic acid (4-amino-3,4,5,6-tetra-hydro-2H-[1,4′]bipyridinyl-3′-yl)-amide], the IC50 is below 1 µM against KDR kinase, below 1000 nM in test [1], below 1 µM on Pim3 kinase and below 1 µM at Pim1 kinase. Moreover, the EC50 in the test on PC3 cells was below 1 µM.

Turning to `Nc1ncc(-c2ccccc2F)nc1C(=O)Nc1cnccc1N1CCC(N)CC1` [Example 368, 3-amino-6-(2-fluoro-phenyl)-pyrazine-2-carboxylic acid (4-amino-3,4,5,6-tetrahydro-2H-[1,4′]bipyridinyl-3′-yl)-amide], the IC50 against KDR kinase is below 1 µM; in test [1], below 1000 nM; on Pim3 kinase, below 1 µM; at Pim1 kinase, below 1 µM. Also, the EC50 in the test on PC3 cells was below 1 µM.

The record behind these values is patent publication US20140249135A1, “PIM KINASE INHIBITORS AND METHODS OF THEIR USE” (NOVARTIS AG, priority 2007, published 2014).
